Tests used:
Substance-P receptor = Substance-P receptor (Rattus norvegicus, UniProt P14600); experiment: […]; type: functional, microsomes, Liver, Microsome
[1] = (§1) Compound was tested in vivo for the ability to antagonise extravasation induced by the administration at 1 mg/kg po.; type: functional
[2] = Compound was tested in vivo for the ability to antagonise extravasation induced by the administration; type: functional
[3] = Compound was tested in vivo for the ability to antagonise extravasation induced by the administration.; type: functional; conditions: read-out: ID50 (the source's name)
[4] = as §1; type: functional; remark: listed apart in the source

Substance-P receptor, sequence (P14600 whole entry): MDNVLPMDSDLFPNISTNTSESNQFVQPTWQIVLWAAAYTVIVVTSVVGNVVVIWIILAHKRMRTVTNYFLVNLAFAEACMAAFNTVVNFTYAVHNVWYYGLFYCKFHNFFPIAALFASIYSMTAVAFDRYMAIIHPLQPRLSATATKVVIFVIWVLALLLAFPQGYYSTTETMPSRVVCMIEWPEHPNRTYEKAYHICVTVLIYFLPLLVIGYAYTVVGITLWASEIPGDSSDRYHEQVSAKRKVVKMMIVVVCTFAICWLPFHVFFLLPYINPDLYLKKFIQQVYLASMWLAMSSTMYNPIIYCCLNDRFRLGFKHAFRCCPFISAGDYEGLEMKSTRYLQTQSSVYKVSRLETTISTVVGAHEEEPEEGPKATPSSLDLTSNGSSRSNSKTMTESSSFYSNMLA

| SMILES | IC50 (Substance-P receptor) | other results |
| --- | --- | --- |
| C[C@@H](O[C@H]1CCCN[C@H]1c1ccccc1)c1ccccc1 | 86 nM |  |
| FC(F)(F)c1cc(CO[C@H]2CCCN(Cc3nc[nH]n3)[C@H]2c2ccccc2)cc(C(F)(F)F)c1 | 0.18 nM | inhibition in vivo at 1 mg/kg [1]: 55%; Inhibition [2]: 0%; ED50 [3]: 0.034 mg/kg |
| FC(F)(F)c1cc(CO[C@H]2CCCN[C@H]2c2ccccc2)cc(C(F)(F)F)c1 | 0.8 nM |  |
| C[C@H](O[C@H]1CCCN[C@H]1c1ccccc1)c1ccccc1 | > 10000 nM |  |
| C[C@H](O[C@H]1CCCN[C@H]1c1ccccc1)c1cc(C(F)(F)F)cc(C(F)(F)F)c1 | 87 nM |  |
| C[C@@H](O[C@H]1CCCN(Cc2n[nH]c(=O)[nH]2)[C@H]1c1ccccc1)c1ccccc1 | 5.9 nM |  |
| C[C@H](O[C@H]1CCCN(Cc2n[nH]c(O)n2)[C@H]1c1ccccc1)c1cc(Cl)cc(Cl)c1 | 25 nM |  |
| C[C@@H](O[C@H]1CCCN(Cc2n[nH]c(O)n2)[C@H]1c1ccccc1)c1cc(Cl)cc(Cl)c1 | 0.09 nM | ED50 [3]: > 0.1 mg/kg |
| C[C@H](O[C@H]1CCCN[C@H]1c1ccccc1)c1cc(Cl)cc(Cl)c1 | 85 nM |  |
| c1ccc(CO[C@H]2CCCN[C@H]2c2ccccc2)cc1 | 160 nM |  |
| C[C@@H](O[C@H]1CCCN(Cc2n[nH]c(O)n2)[C@H]1c1ccccc1)c1cc(C(F)(F)F)cc(C(F)(F)F)c1 | 0.16 nM | inhibition in vivo at 1 mg/kg [1]: 97%; inhibition in vivo at 1 mg/kg [4]: 66%; ED50 [3]: 0.026 mg/kg |
| C[C@@H](O[C@H]1CCCN[C@H]1c1ccccc1)c1cc(Cl)cc(Cl)c1 | 0.91 nM |  |
| C[C@@H](O[C@H]1CCCN(Cc2nc[nH]n2)[C@H]1c1ccccc1)c1cc(C(F)(F)F)cc(C(F)(F)F)c1 | 0.16 nM | inhibition in vivo at 1 mg/kg [1]: 78%; Inhibition [2]: 12%; ED50 [3]: 0.06 mg/kg |
| C[C@@H](O[C@H]1CCCN[C@H]1c1ccccc1)c1cc(C(F)(F)F)cc(C(F)(F)F)c1 | 0.15 nM |  |
